Experimental data published in US8598316B2, “Molecules that selectively home to vasculature of pre-malignant dysplastic lesions or malignancies” (priority 2003, dated 2013).

Columns and labels:
squamous cell carcinomas = assay: In vivo homing of individual phage clones to skin tumors of K14-HPV16 mice; parameters: species or system mouse; settings: phage-displayed peptide, intravenous injection, tumor-bearing K14-HPV16 mice
Text: (§1) To test homing specificity of the selected peptides, purified phage displaying a single recombinant sequence were intravenously injected into K14HPV16 mice bearing protuberant ear or trunk tumors at 9 to 12 months of age to assess homing to squamous cell carcinomas, or alternatively injected into younger K14HPV16 mice presenting with multifocal dysplasias but no tumors. Both neoplastic tissues and normal control organs were collected and assayed for phage accumulation. Phage displaying the peptide CRAKSKVAC (SEQ ID NO: 9), which appeared with the highest frequency in both the ex vivo and in vivo sequence pools (5 and 15 times, respectively), were 1500-fold enriched in dysplastic skin relative to non-recombinant control phage. However, phage displaying peptide. […] Several other dysplasia-selected clones also differentiated poorly between control tissues and dysplastic skin; seven of the nine dysplasia-selected phage clones appeared to be responsible for the overall enrichment of recombinant phage in control tissues in the final in vivo round of selection as shown in FIG. 1A (right panel), and were not studied further.
(§2) To isolate phage that selectively home to squamous cell carcinomas (SCCs), two rounds of ex vivo panning selections were performed followed by two rounds of in vivo panning in K14-HPV16 mice having tumors histologically confirmed as squamous cell carcinoma grades II-IV (Coussens, supra, 1996). The enrichment rose from 6-fold relative to non-recombinant phage in the second ex vivo round to greater than 70-fold relative to non-recombinant phage in the second in vivo round (the fourth sequential round overall) as shown in FIG. 1B. From 192 sequenced phage clones, fifteen were selected for further analysis based on their frequency (48 from ex vivo round 2, 48 from in vivo round 1, and 96 from in vivo round 2) and their increased prevalence in the in vivo selections. Of these, four clones displaying the following amino acid sequences bound to a K14-HPV16 tumor-derived cell suspension ex vivo: CGKRK (SEQ ID NO: 6), CGTKRKC (SEQ ID NO: 11), CDTAVVEGL (SEQ ID NO: 12) and CDTRL (SEQ ID NO: 7). Phage-displaying the sequence CDTAVVEGL (SEQ ID NO: 12) also were 340-fold enriched in tumors in vivo relative to non-recombinant control phage.

[1] = system: K14-HPV16 tumor-derived cell suspension; assay: Ex vivo phage binding to tumor cell suspension; assay type: cell-based, mouse; settings: phage-displayed peptide
Procedure: (§3) To isolate peptides specific for dysplastic lesions, two rounds of selection were performed ex vivo followed by one round of selection in vivo. […] Phage selections and validations were performed essentially as described in Laakkonen et al., Nat. Med. 8:751-755 (2002).
as §2

[2] = system: normal skin and control tissues; assay: In vivo phage accumulation in normal skin, hyperplastic skin and control organs; parameters: species or system mouse; settings: phage-displayed peptide; for homing to normal skin of FVB/n mice: wild-type FVB/n mice; for accumulation in control tissues / normal organs: intravenous injection
Text: as §1

[3] = system: PDSC5, a K14-HPV16 tumor-derived cell line; assay: Fluorescein-labeled peptide homing, PDSC5 subcutaneous transplant tumor; assay type: in vivo, mouse; settings: intravenous, subcutaneous tumor in FVB/n mice
Procedure: (§4) To analyze homing selectivity, the K14-HPV16 squamous cell cancer-homing peptides, CGKRK (SEQ ID NO: 6) and CDTRL (SEQ ID NO: 7), were analyzed for the ability to home to endothelium in tumors of different tissue origins and in tumors localized to different anatomical locations. In particular, three subcutaneously implanted tumors and two tumors produced in transgenic animal models were examined for accumulation of fluorescein-labeled peptides following intravenous injection
(§5) RIP1-Tag2 mice were used at 12 weeks of age, at which time all mice had pancreatic islet tumors. MMTV-PyMT mice were 4 to 6 months old and carried palpable mammary tumors. Cells for subcutaneous inoculation to produce transplant tumors were cultured in 10% fetal calf serum (FCS) in Dulbecco's Modified Eagle's Media (DMEM). Tumors were generated by subcutaneously injecting 10^6 cells into the chest skin of FVB/n (PDSC5) or Balb/c nude (MDA-MB-435 and C8161) mice. Mice bearing subcutaneous transplant tumors had tumors with an approximate diameter of 1 centimeter. PDSC5 tumors and MDA-MB-435 xenografts reached this size about 9 weeks post-injection while C8161 xenografts reached a size of 1 cm about three weeks post-injection.

[4] = system: C8161 human melanoma line; assay: Fluorescein-labeled peptide homing, C8161 xenograft; assay type: in vivo, mouse; settings: intravenous, subcutaneous tumor in Balb/c nude mice
Procedure: as §4, §5

[5] = system: dysplastic skin vasculature and tumor vasculature; assay: Localization of intravenously injected fluorescein-labeled peptides in K14-HPV16 mice (Meca-32 staining); assay type: in vivo, mouse; settings: intravenous, 10 minutes; for peptide localization in dysplastic skin of tumor-bearing mice / peptide localization in squamous tumor: tumor-bearing K14-HPV16 mice; for peptide localization in dysplastic skin of non-tumor-bearing mice: younger dysplasia-bearing K14-HPV16 mice
Procedure: Both younger dysplasia-bearing and older tumor-bearing K14-HPV16 mice were injected with fluorescein-labeled peptides. After 10 minutes, both normal and neoplastic tissues were collected; tissue sections were prepared and stained with antibodies to both CD31 and a second endothelial marker, the cell-surface antigen Meca-32. Similar results were obtained with the two endothelial marker antibodies; the data for Meca-32 are shown in FIG. 3, in which localization of intravenously infused peptides and antibody was visualized by two-color fluorescence microscopy.
(§6) Areas of skin, tumors and various organs were collected and either fixed in formalin, dehydrated through serial alcohols and embedded in paraffin, or directly embedded in OCT medium (Fisher Scientific). K14-HPV16 dysplasia and tumor samples were graded by evaluating hematoxylin & eosin and anti-keratin staining on 5 μm paraffin sections under a light microscope (Coussens et al., supra, 1996). Rat anti-mouse CD31 and rat anti-mouse Meca-32 (BD Pharmingen; San Diego, Calif.) were used for vascular immunostaining on 10 μm frozen sections. Anti-phage staining and biodistribution of fluorescein-labeled peptides were performed essentially as described in Laakkonen et al., supra, 2002.

[6] = system: MDA-MB-435 human breast cancer line; assay: Fluorescein-labeled peptide homing, MDA-MB-435 xenograft; assay type: in vivo, mouse; settings: for homing to MDA-MB-435 xenograft: intravenous, subcutaneous tumor in Balb/c nude mice
Procedure: as §4, §5

[7] = system: breast carcinomas in the MMTV-PyMT transgenic mouse model; assay: Fluorescein-labeled peptide homing, MMTV-PyMT transgenic model; assay type: in vivo; settings: intravenous
Procedure: as §4, §5

cultured tumor cells = assay: Binding to cultured tumor cells; assay type: cell-based
[8] = system: CD31-positive endothelial cells; assay: Immunohistochemical localization of intravenously injected phage (anti-T7 / anti-CD31); assay type: in vivo, mouse; settings: phage-displayed peptide, intravenous; 4 to 6 month-old dysplasia-bearing or 9 to 12 month-old tumor-bearing K14-HPV16 mice
Text: To characterize the nature of the selectivity of the dysplasia- and tumor-homing peptides, K14-HPV16 mice were intravenously injected with cloned phage displaying a particular peptide, and phage localization visualized using histological procedures. Peptide localization was further analyzed with chemically synthesized fluorescein-labeled peptides.
Phage were intravenously injected into 4 to 6 month-old dysplasia-bearing mice with dysplasia-homing phage bearing CSRPRRSEC (SEQ ID NO: 3). In parallel, a set of 9 to 12 month-old tumor-bearing mice were infused with one of the tumor-homing phage CGTKRKC (SEQ ID NO: 11), CGKRK (SEQ ID NO: 6) or CDTRL (SEQ ID NO: 7). Various tissues were collected from each mouse and analyzed by double label immunohistochemical staining using an anti-T7 antibody to detect phage and an anti-CD31 antibody to detect endothelial cells of the vasculature.
as §6

[9] = system: angiogenic islets (dysplasias) or tumors in the RIP-Tag transgenic mouse model of pancreatic islet cell carcinoma; assay: Fluorescein-labeled peptide homing, RIP-Tag transgenic model; assay type: in vivo; settings: intravenous
Procedure: as §4, §5

dysplastic skin lesions = assay: In vivo homing of individual phage clones to dysplastic skin of K14HPV16 mice; parameters: species or system mouse; settings: phage-displayed peptide, intravenous injection
Procedure: as §3, §1

[10] = system: hyperplastic skin of 1 to 2 month-old K14-HPV16 mice; assay: Ex vivo phage binding to hyperplastic skin; assay type: cell-based, mouse; settings: phage-displayed peptide
mitochondrial membranes = settings: at a concentration of 10 μM; cited from earlier work

With CDTAVVEGL (phage-displayed) the “enrichment in tumors in vivo relative to non-recombinant control phage” value (squamous cell carcinomas) was 340 fold and the “binding to K14-HPV16 tumor-derived cell suspension ex vivo” value [1] was “bound”.
For CDTRL [tumor-homing peptide], the “affinity for hyperplastic skin” value ([2]; in vivo, K14-HPV16 mice) was “little affinity for hyperplastic skin”, the “homing to normal skin of FVB/n mice” value ([2]; in vivo) was “no significant homing to normal skin” and the “homing to PDSC5 transplant tumor” value [3] was “accumulated only in the melanoma xenografts”. The “homing to C8161 melanoma xenograft” value [4] was “accumulated only in the melanoma xenografts”, the “peptide localization in dysplastic skin of tumor-bearing mice” value [5] was “at lower levels” and the “peptide localization in squamous tumor” value [5] was “primarily detected in tumor vasculature”. For the same substance, the “peptide localization in dysplastic skin of non-tumor-bearing mice” value [5] was “not detected in the dysplastic skin of younger non-tumor bearing mice”, the “homing to MDA-MB-435 xenograft” value [6] was “accumulated only in the melanoma xenografts” and the “homing to MMTV-PyMT breast carcinomas” value [7] was “did home to breast carcinomas”. The “binding to cultured tumor cells” value (cultured tumor cells) was “bind a range of cultured tumor cells”, the homing to tumor (squamous cell carcinomas) was “variable preference for squamous cell carcinomas and dysplastic lesions” and the “tissue localization of phage by immunohistochemical staining” value (from here on “tissue localization of phage”) [8] was “localized to large, dilated vessels throughout the dysplastic and hyperplastic skin”. The “binding to K14-HPV16 tumor-derived cell suspension ex vivo” value [1] was “bound” and the “homing to angiogenic islets or tumors of RIP-Tag mice” value (“homing to angiogenic islets or tumors” below) [9] was “neither peptide CGKRK (SEQ ID NO: 6) nor CDTRL (SEQ ID NO: 7) homed to angiogenic islets (dysplasias) or tumors”.
For CGKRK [tumor-homing peptide], the “accumulation in control tissues / normal organs” value [2] was “very low levels”, the “homing to PDSC5 transplant tumor” value [3] was “homed to cells in each of the three transplant tumors” and the “homing to C8161 melanoma xenograft” value [4] was “homed to cells in each of the three transplant tumors”. For the same substance, the “peptide localization in dysplastic skin of tumor-bearing mice” value [5] was “at lower levels”, the “peptide localization in squamous tumor” value [5] was “primarily detected in tumor vasculature” and the “peptide localization in dysplastic skin of non-tumor-bearing mice” value [5] was “not detected in the dysplastic skin of younger non-tumor bearing mice”. The “subcellular localization in vascular cells” value ([6]; FIG. 4D, endothelial cells (CD31, Meca-32)) was “localized in the cytoplasm and nuclei of vascular cells”, the “homing to MDA-MB-435 xenograft” value [6] was “homed to cells in each of the three transplant tumors” and the “homing to MMTV-PyMT breast carcinomas” value [7] was “did home to breast carcinomas”. The “binding to cultured tumor cells” value (cultured tumor cells) was “bind a range of cultured tumor cells”, the “homing to dysplastic skin” value (dysplastic skin lesions) was “Some homing to dysplastic lesions” and the “enrichment in tumors in vivo relative to non-recombinant control phage” value (squamous cell carcinomas) was 80 to 1,000 fold. For the same substance, the homing to tumor (squamous cell carcinomas) was “marked preference for the tumor”, the “tissue localization of phage” value [8] was “accumulated in tumor tissue” and the “binding to K14-HPV16 tumor-derived cell suspension ex vivo” value [1] was “bound”. The “homing to angiogenic islets or tumors” value [9] was “neither peptide CGKRK (SEQ ID NO: 6) nor CDTRL (SEQ ID NO: 7) homed to angiogenic islets (dysplasias) or tumors”.
For CGTKRKC (phage-displayed), the “tissue localization of phage” value [8] was “detected to a lesser extent in dysplastic skin of tumor-bearing mice” and the “binding to K14-HPV16 tumor-derived cell suspension ex vivo” value [1] was “bound”.
With CNRRTKAGC (phage-displayed) the “accumulation in control tissues / normal organs” value [2] was “did not appreciably home to normal organs” and the “homing to dysplastic skin” value (dysplastic skin lesions) was “highly selective for dysplastic skin”.
With CRAKSKVAC (phage-displayed) the “accumulation in control tissues / normal organs” value [2] was “accumulated with similar frequency in normal skin, kidney and brain” and the “enrichment in dysplastic skin relative to non-recombinant control phage” value (dysplastic skin lesions) was 1500 fold.
With “CSRPRRSEC [dysplasia-homing peptide from CX7C library]” the “homing to normal skin of FVB/n mice” value ([2]; in vivo) was “did not home to normal skin of FVB/n mice”, the “accumulation in control tissues / normal organs” value [2] was “did not significantly accumulate in control tissues” and the “peptide localization in dysplastic skin of tumor-bearing mice” value [5] was “co-localized with Meca-32 in dysplastic skin vasculature”. The “peptide localization in squamous tumor” value [5] was “not detected within the squamous tumor”, the “peptide localization in dysplastic skin of non-tumor-bearing mice” value [5] was “co-localized with Meca-32 in dysplastic skin vasculature” and the “binding to hyperplastic skin ex vivo” value [10] was “did not bind to hyperplastic skin”. The “enrichment in dysplastic skin relative to non-recombinant control phage” value (dysplastic skin lesions) was roughly 350 fold, the “homing to dysplastic skin” value (dysplastic skin lesions) was “effectively homed to dysplastic chest skin and dysplastic ear skin” and the “homing to dysplastic skin” value (dysplastic skin lesions; listed as CSRPRRSRC) was “maintained the ability to home”. For the same substance, the homing to tumor (squamous cell carcinomas) was “little homing to the tumor”, the “tissue localization of phage” value [8] was “accumulated in dysplastic skin” and the “homing to angiogenic islets or tumors” value [9] was “does not recognize pre-malignant lesions”.
For D(KLAKLAK)2, the mitochondrial swelling (mitochondrial membranes) is given as “marked mitochondrial swelling”.
